Measurements taken from ChEMBL document CHEMBL5046254, “Mycobactin Analogues with Excellent Pharmacokinetic Profile Demonstrate Potent Antitubercular Specific Activity and Exceptional Efflux Pump Inhibition” (J Med Chem, 2022).
Values after ≈ are worked out from the molar mass of the structure shown. Active and inactive are the calls of the source. The rule behind the calls is not given here.

Columns and labels:
[1] = tested on: THP-1; assay: Cytotoxicity against human THP-1 cells assessed as inhibition of growth measured for 48 hrs by resazurin microtiter assay; type: functional
[2] = Selectivity index, ratio of GIC90 for Cytotoxicity against human THP-1 cells to MIC90 for Antitubercular activity against Mycobacterium aurum ATCC 10437; type: toxicity, cell-based; details: read-out: Selectivity Index
[3] = Volume of distribution at steady state in Sprague-Dawley rat at 1 mg/kg, iv; type: ADME, organism-based; details: in vivo
[4] = Selectivity index, ratio of GIC90 for Cytotoxicity against mouse RAW264.7 cells MIC90 for Antitubercular activity against Mycobacterium aurum ATCC 10437; type: toxicity, cell-based; details: read-out: Selectivity Index
[5] = Selectivity index, ratio of GIC90 for cytotoxicity against human THP-1 cells to MIC90 for Antitubercular activity against Mycobacterium smegmatis mc2155 ATCC 700084; type: toxicity, cell-based; details: read-out: Selectivity Index
[6] = tested on: Mycolicibacterium smegmatis; assay: Bactericidal activity against Mycobacterium smegmatis mc2155 ATCC 700084 assessed as inhibition of bacterial growth preincubated for 48 hrs followed by agar surface scraped and transfer to GAST medium and measured after 5 days by HT-SPOTi assay; type: functional, organism-based; details: time 7.0 day
[7] = tested on: Mycolicibacterium aurum; assay: Antimycobacterial activity against Mycobacterium aurum ATCC 10437 infected in RAW264.7 cells assessed as inhibition of growth at 16 ug/ml incubated for 72 hrs by SPOTi assay; type: functional; parameters: scale not given: the % may be the effect or the level left; details: dose 16 µg/ml
[8] = AUClast in Sprague-Dawley rat at 1 mg/kg, iv; type: ADME, organism-based; parameters: route intravenous, time 0 - last, dose 1 mg/kg; details: in vivo
[9] = Cmax in Sprague-Dawley rat at 1 mg/kg, iv; type: ADME, organism-based; parameters: route intravenous, dose 1 mg/kg; details: in vivo
[10] = Selectivity index, ratio of GIC90 for Cytotoxicity against […] human THP-1 cells to MIC90 for Antitubercular activity against Mycobacterium bovis BCG ATCC 35734; type: toxicity, cell-based; details: read-out: Selectivity Index
[11] = Selectivity index, ratio of GIC90 for Cytotoxicity against mouse RAW264.7 cells to MIC90 for Antitubercular activity against Mycobacterium bovis BCG ATCC 35734; type: toxicity, cell-based; details: read-out: Selectivity Index
[12] = tested on: Mycolicibacterium smegmatis; assay: Synergistic antibacterial activity against Mycobacterium smegmatis mc2155 ATCC 700084 assessed as fractional inhibitory concentration in presence of isoniazid by checker board assay; type: functional
[13] = Cmax in Sprague-Dawley rat at 5 mg/kg, po; type: ADME, organism-based; parameters: route oral, dose 5 mg/kg; details: in vivo
[14] = target: T1, Salicyl-AMP ligase / salicyl-S-ArCP synthetase (Mycobacterium tuberculosis) (UniProt P71716); assay: Binding affinity to Mycobacterium tuberculosis MbtA assessed as change in thermal stability at 100 uM incubated for 1 hr in presence of ATP at pH 8.5 by thermo fluorometer analysis
T1 sequence (whole entry): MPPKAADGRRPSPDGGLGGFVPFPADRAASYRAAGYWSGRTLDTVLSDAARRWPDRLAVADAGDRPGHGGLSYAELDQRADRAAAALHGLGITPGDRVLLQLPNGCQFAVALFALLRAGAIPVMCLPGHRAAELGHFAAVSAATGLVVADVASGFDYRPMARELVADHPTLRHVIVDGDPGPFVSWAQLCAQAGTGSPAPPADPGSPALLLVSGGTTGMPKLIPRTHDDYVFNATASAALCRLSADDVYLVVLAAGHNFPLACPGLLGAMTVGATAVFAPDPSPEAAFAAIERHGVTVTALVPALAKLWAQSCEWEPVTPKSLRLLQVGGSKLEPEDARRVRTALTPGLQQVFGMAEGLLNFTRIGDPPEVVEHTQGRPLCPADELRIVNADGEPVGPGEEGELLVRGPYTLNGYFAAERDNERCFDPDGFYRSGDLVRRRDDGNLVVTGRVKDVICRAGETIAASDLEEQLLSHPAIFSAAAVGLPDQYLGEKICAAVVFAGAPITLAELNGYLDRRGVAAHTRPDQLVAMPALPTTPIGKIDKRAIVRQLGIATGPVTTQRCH

[15] = tested on: Mycolicibacterium smegmatis; assay: Synergistic antibacterial activity against Mycobacterium smegmatis mc2155 ATCC 700084 assessed as fractional inhibitory concentration in presence of rifampicin by checker board assay; type: functional
[16] = Elimination half life in Sprague-Dawley rat at 1 mg/kg, iv; type: ADME, organism-based; details: in vivo, read-out: beta t1/2 (converted)
[17] = Oral bioavailability in Sprague-Dawley rat at 5 mg/kg; type: ADME, organism-based; details: in vivo
[18] = Selectivity index, ratio of GIC90 for cytotoxicity against mouse RAW264.7 cells to MIC90 for Antitubercular activity against Mycobacterium smegmatis mc2155 ATCC 700084; type: toxicity, cell-based; details: read-out: Selectivity Index
[19] = Tlast in Sprague-Dawley rat at 5 mg/kg, po; type: ADME, organism-based; details: in vivo
[20] = AUCinfinity in Sprague-Dawley rat at 5 mg/kg, po; type: ADME, organism-based; parameters: time infinity, route oral, dose 5 mg/kg; details: in vivo
[21] = tested on: RAW264.7; assay: Cytotoxicity against mouse RAW264.7 cell assessed as inhibition of growth measured for 48 hrs by resazurin microtiter assay; type: functional
[22] = Tlast in Sprague-Dawley rat at 1 mg/kg, iv; type: ADME, organism-based; details: in vivo
[23] = AUClast in Sprague-Dawley rat at 5 mg/kg, po; type: ADME, organism-based; parameters: time 0 - last, route oral, dose 5 mg/kg; details: in vivo
[24] = target: T1, Salicyl-AMP ligase / salicyl-S-ArCP synthetase (Mycobacterium tuberculosis); assay: Binding affinity to Mycobacterium tuberculosis MbtA assessed as change in thermal stability at 100 uM incubated for 1 hr in presence of ATP at pH 7.5 by thermo fluorometer analysis
[25] = tested on: Mycolicibacterium smegmatis; assay: Antitubercular activity against Mycobacterium smegmatis mc2155 ATCC 700084 cultured in GAST media incubated for 24 hrs by resazurin microtiter assay; type: functional
[26] = Elimination half life in Sprague-Dawley rat at 5 mg/kg, po; type: ADME, organism-based; details: in vivo, read-out: beta t1/2 (converted)
[27] = tested on: Mycobacterium tuberculosis; assay: microbe, parasite or virus in culture; details: H37Rv ATCC 27294, 192 h
[28] = tested on: Mycolicibacterium smegmatis; assay: Antibacterial activity against Mycobacterium smegmatis mc2155 ATCC 700084 cultured in iron supplemented medium assessed as inhibition of siderophore production at 4 ug/ml measured after 3 hrs by CAS assay relative to control; type: functional; parameters: scale not given: the % may be the effect or the level left; details: dose 4 µg/ml
[29] = tested on: Mycolicibacterium smegmatis; assay: Antibacterial activity against Mycobacterium smegmatic mc2155 ATCC 700084 assessed as inhibition of efflux pump using ethidium bromide as substrate measured every min for 45 mins; type: functional, organism-based
[30] = Hepatic clearance in Sprague-Dawley rat at 1 mg/kg, iv; type: ADME, organism-based, Liver; details: in vivo
[31] = tested on: Mycolicibacterium aurum; assay: Antimycobacterial activity against Mycobacterium aurum ATCC 10437 cultured in GAST media incubated for 72 hrs by resazurin microtiter assay; type: functional
[32] = tested on: Mycolicibacterium aurum; assay: Antimycobacterial activity against Mycobacterium aurum ATCC 10437 cultured in GAST-Fe media incubated for 72 hrs by resazurin microtiter assay; type: functional
[33] = tested on: Mycolicibacterium smegmatis; assay: Antitubercular activity against Mycobacterium smegmatis mc2155 ATCC 700084 cultured in GAST-Fe media incubated for 24 hrs by resazurin microtiter assay; type: functional
[34] = tested on: Mycobacterium tuberculosis; assay: microbe, parasite or virus in culture; details: H37Rv ATCC 27294, 192 h; remark: listed apart in the source
[35] = AUCinfinity in Sprague-Dawley rat at 1 mg/kg, iv; type: ADME, organism-based; parameters: time infinity, route intravenous, dose 1 mg/kg; details: in vivo
[36] = tested on: Mycolicibacterium smegmatis; assay: Bacteriostatic activity against Mycobacterium smegmatis mc2155 ATCC 700084 assessed as inhibition of bacterial growth preincubated for 48 hrs followed by agar surface scraped and transfer to GAST medium and measured after 5 days by HT-SPOTi assay; type: functional, organism-based; details: time 7.0 day

| SMILES | GI90 [1] | selectivity ratio [2] | Vdss [3] | selectivity ratio [4] | selectivity ratio [5] | Activity [7] | AUC(0-t) [8] | Cmax [9] | selectivity ratio [10] | selectivity ratio [11] | FIC [12] | Cmax [13] | Tm [14] | FIC [15] | half-life [16] | bioavailability [17] | selectivity ratio [18] | Tlast [19] | AUC(0-inf) [20] | GI90 [21] | further results |
| --- | --- | --- | --- | --- | --- | --- | --- | --- | --- | --- | --- | --- | --- | --- | --- | --- | --- | --- | --- | --- | --- |
| Oc1ccccc1C1=NNC(c2ccc(Cl)cc2)C1 (stereo not given) | 64 µg/mL (≈ 235 µM) | 8 | 11.5 kg/L | 8 | 16 | 90% | 190 ng·h/mL | 448 ng/mL | 16 | 16 | 0.6 | 51.6 ng/mL | 2 °C | 1.12 | 4.76 h | 21% | 32 | 24 h | 215 ng·h/mL | 128 µg/mL (≈ 469 µM) | Activity [6]: Active; Tlast [22]: 12 h; AUC(0-t) [23]: 203 ng·h/mL; Tm [24]: 2 °C; MIC90 [25]: 4 µg/mL (≈ 14.7 µM); half-life [26]: 6.06 h; MIC90 [27]: 16 µg/mL (≈ 58.7 µM); Activity [28]: 54.7%; Activity [29]: Active; CLH [30]: 84.8 mL/min/kg; MIC90 [31]: 16 µg/mL (≈ 58.7 µM); MIC90 [32]: 128 µg/mL (≈ 469 µM); MIC90 [33]: 64 µg/mL (≈ 235 µM); MIC90 [34]: 128 µg/mL (≈ 469 µM); AUC(0-inf) [35]: 197 ng·h/mL |
| Oc1ccccc1C1=NNC(c2ccc(Br)cc2)C1 (stereo not given) | 64 µg/mL (≈ 202 µM) | 8 | 17.3 kg/L | 8 | 16 | 90% | 155 ng·h/mL | 505 ng/mL | 16 | 16 | 0.6 | 47.4 ng/mL | 2.5 °C | 1.12 | 5.42 h | 22% | 32 | 24 h | 184 ng·h/mL | 128 µg/mL (≈ 404 µM) | Activity [36]: Active; Tlast [22]: 12 h; AUC(0-t) [23]: 167 ng·h/mL; Tm [24]: 2 °C; MIC90 [25]: 4 µg/mL (≈ 12.6 µM); half-life [26]: 5.32 h; MIC90 [27]: 8 µg/mL (≈ 25.2 µM); Activity [28]: 51.76%; Activity [29]: Active; CLH [30]: 100 mL/min/kg; MIC90 [31]: 8 µg/mL (≈ 25.2 µM); MIC90 [32]: 128 µg/mL (≈ 404 µM); MIC90 [33]: 64 µg/mL (≈ 202 µM); MIC90 [34]: 128 µg/mL (≈ 404 µM); AUC(0-inf) [35]: 167 ng·h/mL |
